≈ marks a conversion by molar mass, not a printed value. Where “and” joins values, the source holds several entries; their conditions need not be identical. Equal values may be shown once. Read-outs that look alike come from different tables or passages of the source.
How the values were obtained:
[1] = target: T1, AdSS from H. pylori strain 26695 (Helicobacter pylori, UniProt P56137); test: AdSS enzyme activity assay (adenylosuccinate formation, 280 nm); type: biochemical; conditions: for AdSS activity after incubation: 1.23 U/mg in the absence of PLP
T1 construct: made in house; host or cells: E. coli BL21 (DE3)
T1 sequence (P56137 1-411): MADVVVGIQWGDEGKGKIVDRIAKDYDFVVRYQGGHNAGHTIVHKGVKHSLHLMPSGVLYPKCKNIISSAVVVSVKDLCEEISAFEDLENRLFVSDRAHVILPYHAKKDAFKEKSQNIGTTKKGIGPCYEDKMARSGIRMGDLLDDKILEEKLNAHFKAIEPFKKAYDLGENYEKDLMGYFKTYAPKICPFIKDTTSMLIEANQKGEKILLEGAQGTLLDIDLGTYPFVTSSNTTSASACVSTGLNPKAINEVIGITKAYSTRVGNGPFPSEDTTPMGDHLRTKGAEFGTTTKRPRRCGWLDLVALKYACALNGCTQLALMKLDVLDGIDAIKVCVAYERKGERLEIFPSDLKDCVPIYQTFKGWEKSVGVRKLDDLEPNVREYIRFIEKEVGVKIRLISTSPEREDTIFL
Description: Enzymatic activity measurements were carried out in the similar manner as described in Bubić et al. (2018), at 25° C., in cuvettes with an optical path length of 1 cm containing 1 ml of reaction mixture consisting of 20 mM Hepes/NaOH buffer pH 7.7, 1 mM MgSO4 and the substrates, GTP, IMP and Asp. Saturating concentrations of substrates, namely GTP: 0.06 mM, IMP: 0.15 mM and Asp: 5 mM, were used to measure specific activity. The extinction coefficient at 280 nm of 1.17×10^4 M^−1 cm^−1 (adenylosuccinate formation) was used to calculate the concentration of the product formed (Rudolph and Fromm 1969). One unit (U) of AdSS specific activity is defined as μmol of adenylosuccinate produced per minute at 25° C. Specific activity is expressed as units of enzymatic activity per mg of protein (U/mg).
Inhibition of AdSS by PLP was examined first at saturation with all enzyme substrates and with increasing concentrations of the PLP inhibitor.
To determine the extent to which PLP-induced inactivation develops over time, the enzyme at low concentration (0.022 μM) was incubated at 25° C. in Hepes/NaOH buffer pH 7.0, in the presence of 1.11 mM MgSO4, 5.55 mM Asp, 167 μM IMP and PLP at various concentrations (ranging between 0.03 μM and 8.1 μM). The mixture contained all components necessary for the reaction with the exception of GTP, which, according to Dong and Fromm (1990), competes with PLP. Aliquots of 900 μl were taken from the incubated mixture at specified time intervals, placed in a cuvette and 100 μl of 0.6 mM GTP solution was added to initiate the reaction. The enzyme activity was determined and analysed in the known manner as described above.
Exponential decays were fitted to the data obtained for each concentration and the reaction rate constant of the inactivation process, k, and the residual enzymatic activity observed when the system reached equilibrium, A∞, were obtained as fitting parameters. From these parameters, the half-life of the inactivation process activity, t1/2, was calculated. The dependence of these three parameters on PLP concentration is shown in the lower panel of FIG. 12.
The inhibition of AdSS from H. pylori by pyridoxal (PI-h) was studied at saturation with all enzyme substrates and with increasing concentrations of the inhibitor, similar to that for PLP in Example 10a).

[2] = test system: H. pylori strain M93 (MTZ resistant); test: Growth curve method / MIC, resistant strain M93; type: cell-based, Helicobacter pylori; conditions: Helicobacter pylori, strain M93, MTZ resistant
Description: The representative PNP inhibitor from H. pylori included in this study was immucillin A. The experiment was conducted using the growth curve method (two-fold serial dilutions in liquid medium). The tested H. pylori strains were cultured in Petri dishes with BHI solid medium supplemented with 10% FBS and 1% H. pylori Selective Supplement antibiotic kit, in anaerostats under microaerophilic conditions (5% 02, 10% CO2, 85% N2) at 37° C. for 3 days. Liquid culture of H. pylori was conducted overnight with shaking at 37° C. under microaerophilic conditions in BHI medium supplemented with 10% FBS and 1% H. pylori Selective Supplement antibiotic kit. Subsequently, for the essential experiment of determining the minimum inhibitory concentration (MIC), double strengthened liquid BHI medium was prepared, that is, supplemented with 20% FBS and a 2% set of H. pylori Selective Supplement antibiotics.
Bacterial proliferation inhibition experiments were carried out in 24-deep-well 2 ml flat-bottomed plates at a solution volume per well of 0.5 ml. In a single well, double strengthened (relative to the concentration planned for testing) solutions of the test inhibitor and double strengthened liquid BHI medium inoculated with H. pylori (10^4-10^5 CFU/ml in the final volume in the well, corresponding to the optical density of the culture OD600=0.05) were mixed together in a 1:1 ratio.
Kanamycin at a concentration of 25 μg/ml (Irie et al., 1997) was used as a positive control, while Mili-Q deionized water and BHI medium not inoculated with bacteria were used as negative controls. Plates were shaken at 37° C., under microaerophilic conditions. […] After 24 hours, the OD600 of samples containing the negative control, i.e. with Mili-Q deionized water, was about 1.2-1.4, corresponding to a bacterial concentration of about […].
In addition, the method proposed by Knezevic et al. (2018) was used to check whether the observed OD600 was from live bacterial cells. For this purpose, an equal volume of Christensen's double strength urea broth (that is, containing twice the concentration of all components) was added to the wells after incubation, and the plates were additionally incubated for 4 hours in an oxygen atmosphere at 37° C. During incubation, in wells with urease produced by live bacteria, urea is converted to ammonia and carbon dioxide, changing the pH of the solution and thus the colour of the phenol red indicator contained in the medium (from orange to purple).
All experiments were performed in triplicate.
The antibacterial activity of two compounds, mefloquine (in the form of hydrochloride) and quinine, described in the literature as potent in vitro inhibitors of the PNP enzyme from Plasmodium falciparum (Dziekan et al., 2019), was tested. Using a two-fold serial dilution method in liquid medium (as described in Example 3), the MIC values for mefloquine and quinine were determined against clinical H. pylori strains resistant to MTZ, CLR and MTZ+CLR (M26, M91, M92 and M93), as well as the reference H. pylori strain 26695. Four clinical H. pylori strains isolated from adults, from primary infections (the subjects had never previously been treated against H. pylori infection) were tested. These strains come from the collection of the Department of Microbiology of the Medical University of Wroclaw and were obtained due to collaboration with Prof. Grażyna Gościniak, MD, PhD. The tested compounds belong to organic substances and are soluble in DMSO. The maximum tested concentration of quinine in H. pylori culture was 0.56 mM, and that of mefloquine was 2.25 mM. […] On each occasion, the effect of DMSO alone on the growth of the H. pylori strains tested was also checked. […] Kanamycin was used as a positive control and Mili-Q deionised water as a negative control. All experiments were carried out in triplicate. […]

[3] = 8.1 μM PLP, about 10 minutes of incubation without GTP

Row | SMILES | effect on AdSS activity ([1]; 400 μM (maximum used), saturating substrates) | MIC ([2]; read-out: MIC) | MIC ([2]; read-out: MIC (Table 7)) | IC50 [1] | AdSS activity after incubation ([1]; 0.03 μM PLP, about 4 hours of incubation without GTP) | inactivation of AdSS ([1]; 0.03 μM PLP, enzyme 0.022 μM incubated without GTP, 25° C.) | inactivation of the enzyme ([1]; 1 μM PLP, incubation without GTP) | decrease in AdSS activity [1, 3] | AdSS activity after incubation [1, 3] | decrease of enzyme activity ([1]; PLP above about 100 μM, saturating substrates, 25° C., pH 7.7)
1 | Cc1ncc(CO)c(C=O)c1O.Cl [PI-h, pyridoxal hydrochloride] | no effect on AdSS activity | 255 µg/mL and 1250 µM | 1.25 µM |  |  |  |  |  |  | 
2 | Cc1ncc(COP(=O)(O)O)c(C=O)c1O [PLP, pyridoxal 5′-phosphate] |  | 309 µg/mL and 1250 µM | 1.25 µM (≈ 0.309 µg/mL) | 13.3 µM | 0.48 U/mg | more than 50% | 90% | about 97% | 0.04 U/mg | 86%

— patent US20250195498A1, “INHIBITOR OF CELLULAR PURINE NUCLEOTIDE SALVAGE PATHWAY ENZYME FOR USE IN THE TREATMENT AND/OR PREVENTION OF HELICOBACTER PYLORI INFECTION AND/OR DISEASE ASSOCIATED WITH SUCH INFECTION AND PHARMACEUTICAL COMPOSITION COMPRISING THE SAME” (UNIWERSYTET WARSZAWSKI, priority 2022, published 2025)
